In article PMC10382584, “Macrocyclization of linear molecules by deep learning to facilitate macrocyclic drug candidates discovery” (Nature Communications, 2023):
Values joined by “and” are separate entries in the source; they are usually repeats but may differ in a detail not shown here. Equal values may be shown once. Read-outs that look alike come from different tables or passages of the source.

Legend:
DSS-induced colitis mice = assay: In vivo efficacy study, DSS-induced colitis model; set-up: species or system male BALB/c mice; conditions: for Body weight (Fig. 6a) / DAI score (Fig. 6b): individual mice
Description: Model mice were divided into four groups and eight mice were included in each group on day 8. […] Meanwhile, solvent was given intragastrically to the control group and model group. On day 15, the mice were sacrificed, and the length and weight of each colon were measured.
Body weight, the stool consistency, and the presence of blood in feces were recorded daily in the morning. […] The maximum score was 9, which was the sum of the scores. About 1-cm colon tissue, which is 0.5 cm away from the anal margin, was collected, and the ileocecal area was used for histopathological examination. After H&E staining, the tissues were scored under single-blind conditions to evaluate the levels of inflammation and tissue damage in the colons following the criteria proposed by ref. [62]. Statistical analyses were performed using SPSS v24.0.

HEL cells = assay: Cell proliferation assay (CCK-8), HEL cells; type: cell-based, human; conditions: for Inhibition (%): single wells, replicates 1 and 2
Description: (§1) The human erythroid leukemia (HEL 92.1.7) cells were purchased from the American Type Culture Collection (ATCC, TIB-180), and the human megakaryoblastic (SET2) cells were obtained from German Collection of Microorganisms and Cell Cultures (DSMZ, ACC 608). The anti-proliferative activities of compounds were evaluated using WST-8 cell counting kit-8 (Elabscience). HEL and SET-2 cells were seeded at 5000 cells/well in 70 μL RPMI-1640 medium (Hyclon) with 10% FBS (Gibco) to the 96-well plate and incubated overnight at 37 °C with 5% CO2. The compounds were serially diluted in RPMI-1640 medium, and cells were treated separately with 30 μL various concentrations of compounds for 72 h. The final DMSO concentration in the culture wells was 0.1%, which had no effect on the cell viability. Finally, 10 μL of CCK-8 solution was added into the wells. 4 h later, the absorbance values at 450 nm were recorded. IC50 values were determined using GraphPad Prism v8.3.0, and three parallel experiments were performed.

SET-2 cells = assay: Cell proliferation assay (CCK-8), SET-2 cells; type: cell-based, human
Description: as §1

## Cc1cnc2nc1Nc1cccc(c1)COCC=CCOCc1cc(ccc1OCCN1CCCC1)N2 [Compound 3]
DSS-induced colitis mice; Compound 3 5 mg/kg, day 4, 5 mg/kg, in g (unit assumed)
  Body weight (Fig. 6a): 23.2 and 19.6 and 22.9 and 22.3 and 22.4 and 22 and 21.1 and 22.5
DSS-induced colitis mice; Compound 3 5 mg/kg, day 5, 5 mg/kg
  DAI score (Fig. 6b): 3 (2×) and 5 and 1 (3×) and 6 and 2
DSS-induced colitis mice; Compound 3 5 mg/kg, day 5, 5 mg/kg, in g (unit assumed)
  Body weight (Fig. 6a): 23 and 19.1 and 22 and 19.4 and 20.5 and 20.9 and 20.6 and 21.4
DSS-induced colitis mice; Compound 3 5 mg/kg, day 6, 5 mg/kg
  DAI score (Fig. 6b): 4 (2×) and 5 and 1 (2×) and 2 and 7 and 6
DSS-induced colitis mice; Compound 3 5 mg/kg, day 6, 5 mg/kg, in g (unit assumed)
  Body weight (Fig. 6a): 22.2 and 18.3 and 21.8 and 20.1 and 18.5 and 18.4 and 20.2 and 21.3
DSS-induced colitis mice; Compound 3 5 mg/kg, day 7, 5 mg/kg
  DAI score (Fig. 6b): 7 (3×) and 2 (2×) and 6 and 3 and 4
DSS-induced colitis mice; Compound 3 5 mg/kg, day 7, 5 mg/kg, in g (unit assumed)
  Body weight (Fig. 6a): 20.9 and 16.9 and 20.5 and 19.8 and 16.7 and 16.5 and 20.1 and 19.7
DSS-induced colitis mice; Compound 3 5 mg/kg, day 8, 5 mg/kg
  DAI score (Fig. 6b): 0 (3×) and 5 and 3 (2×) and 1 (2×)
DSS-induced colitis mice; Compound 3 5 mg/kg, day 8, 5 mg/kg, in g (unit assumed)
  Body weight (Fig. 6a): 20.9 and 15.8 and 22.3 and 21.2 and 16.4 and 21.3 and 21.8
DSS-induced colitis mice; Compound 3 5 mg/kg, day 9, 5 mg/kg
  DAI score (Fig. 6b): 1 and 0 (5×) and 2
DSS-induced colitis mice; Compound 3 5 mg/kg, day 9, 5 mg/kg, in g (unit assumed)
  Body weight (Fig. 6a): 20.2 and 15.8 and 22.7 and 22.9 and 16.5 and 21.9 and 22
DSS-induced colitis mice; Compound 3 5 mg/kg, day 10, 5 mg/kg
  DAI score (Fig. 6b): 1 (4×) and 2 (3×)
DSS-induced colitis mice; Compound 3 5 mg/kg, day 10, 5 mg/kg, in g (unit assumed)
  Body weight (Fig. 6a): 19.5 and 15.3 and 22.2 and 22.8 and 16.1 and 21.9 and 22.6
DSS-induced colitis mice; Compound 3 5 mg/kg, day 11
  DAI score (Fig. 6b): 0
DSS-induced colitis mice; Compound 3 5 mg/kg, day 11, 5 mg/kg
  Body weight (Fig. 6a): 20.1 and 15.7 and 22 (2×) and 22.9 and 16.7 and 22.8
DSS-induced colitis mice; Compound 3 5 mg/kg, day 12, 5 mg/kg
  DAI score (Fig. 6b): 0 (6×) and 1
DSS-induced colitis mice; Compound 3 5 mg/kg, day 12, 5 mg/kg, in g (unit assumed)
  Body weight (Fig. 6a): 21 and 16.6 and 22.3 and 23 and 17.2 and 22.1 and 22.9
DSS-induced colitis mice; Compound 3 5 mg/kg, day 13, 5 mg/kg, in g (unit assumed)
  Body weight (Fig. 6a): 21.7 and 17.7 and 21.8 and 23.1 and 18 and 22.3 and 22.6
DSS-induced colitis mice; Compound 3 5 mg/kg, day 14, 5 mg/kg
  Body weight (Fig. 6a): 21.5 and 17.4 and 22.3 and 23.4 and 19.2 and 22.4 (2×)
DSS-induced colitis mice; Compound 3 5 mg/kg, individual colon tissues (n = 7), 5 mg/kg
  HE staining score (Fig. 6d): 3 and 1 and 2
DSS-induced colitis mice; compound 3 5 mg/kg, Fedratinib 10 mg/kg
  symptoms in DSS-induced murine colitis: ameliorate the symptoms
HEL cells; HEL cell lines, 0.0977 μM
  Inhibition (%): 7.532% and 3.479% and 4.355% and 9.373% and 0.491% and 6.308%
HEL cells; HEL cell lines, 0.1953 μM
  Inhibition (%): 13.777% and 7.751% and 6.875% and 6.544% and 1.513% and 5.600%
HEL cells; HEL cell lines, 0.3906 μM
  Inhibition (%): 19.145% and 12.682% and 3.259% and 5.522% and 6.779% and 5.600%
HEL cells; HEL cell lines, 0.7813 μM
  Inhibition (%): 21.994% and 15.749% and 13.120% and 10.788% and 3.085% and 13.618%
HEL cells; HEL cell lines, 1.5625 μM
  Inhibition (%): 37.004% and 30.321% and 23.090% and 24.936% and 24.700% and 25.722%
HEL cells; HEL cell lines, 3.1250 μM, 3.125 µM
  Inhibition (%): 60.340% and 50.260% and 45.440% and 49.460% and 46.787% and 48.123%
HEL cells; HEL cell lines, 6.2500 μM, 6.25 µM
  Inhibition (%): 81.375% and 75.240% and 74.473% and 74.140% and 73.276% and 76.577%
HEL cells; HEL cell lines, 12.5000 μM, 12.5 µM
  Inhibition (%): 87.949% and 81.375% and 82.142% and 84.437% and 81.607% and 79.564%
HEL cells; HEL cell lines, mean of 2 replicates, read-out: IC50/μM mean, cellular antiproliferative activity
  IC50: 3.05 µM
HEL cells; HEL cell lines, single-replicate fits, read-out: IC50/μM (individual replicates), cellular antiproliferative activity
  IC50: 3.33 µM and 2.78 µM
HEL cells; HEL cells, 72 h, mean ± SD, read-out: Cellular Antiproliferative Activity (IC50) HEL
  IC50: 3.06 ± 0.39 µM
SET-2 cells; SET-2 cell lines, C 0.0977 μM, single wells of replicate 1 and replicate 2
  Inhibition (%): -27.9889% and -18.4466% and -28.7656% and 0.261% and 11.375% and 10.333%
SET-2 cells; SET-2 cell lines, C 0.1953 μM, single wells of replicate 1 and replicate 2
  Inhibition (%): -32.7601% and -23.4397% and -24.3273% and 16.816% and 17.164% and 5.470%
SET-2 cells; SET-2 cell lines, C 0.3906 μM, single wells of replicate 1 and replicate 2
  Inhibition (%): -24.5492% and -19.4452% and -33.2039% and 12.880% and 13.806% and 4.892%
SET-2 cells; SET-2 cell lines, C 0.7813 μM, single wells of replicate 1 and replicate 2
  Inhibition (%): -42.4133% and -41.7476% and -46.4078% and 9.291% and 13.806% and 8.828%
SET-2 cells; SET-2 cell lines, C 1.5625 μM, single wells of replicate 1 and replicate 2
  Inhibition (%): -43.4119% and -41.8585% and -40.6380% and 14.617% and 26.541% and 23.994%
SET-2 cells; SET-2 cell lines, C 3.1250 μM, single wells of replicate 1 and replicate 2
  Inhibition (%): -19.0014% and -10.7906% and -7.5728% and 27.931% and 19.711% and 22.952%
SET-2 cells; SET-2 cell lines, 6.2500 μM, single wells, replicates 1 and 2, 6.25 µM
  Inhibition (%): 17.1706% and 27.3786% and 29.5978% and 31.635% and 25.499% and 11.259%
SET-2 cells; SET-2 cell lines, 12.5000 μM, single wells, replicates 1 and 2, 12.5 µM
  Inhibition (%): 59.6671% and 60.0000% and 61.2205% and 43.097% and 40.782% and 34.993%
SET-2 cells; SET-2 cell lines, mean of 2 replicates, read-out: IC50/μM mean, cellular antiproliferative activity
  IC50: 11.1 µM
SET-2 cells; SET-2 cell lines, mean ± sd of 2 replicates, read-out: IC50/μM mean ± sd, cellular antiproliferative activity
  IC50: 11.1 ± 0.13 µM
SET-2 cells; SET-2 cell lines, single-replicate fits, read-out: IC50/μM (individual replicates), cellular antiproliferative activity
  IC50: 11 µM and 11.2 µM
SET-2 cells; SET-2 cells, 72 h, mean ± SD, read-out: Cellular Antiproliferative Activity (IC50) SET-2
  IC50: 11.1 ± 0.13 µM
